IC50 data for 31 molecules are collected here from patent US20220002332A1, “SCUTELLARIN AMIDE DERIVATIVES, AND PREPARATION METHODS AND USES THEREOF” (HEILONGJIANG BAYI AGRICULTURAL UNIVERSITY, priority 2020, published 2022).

Structures are written as SMILES.

Common to all, as to type: cell-based
Assay [1] deals with human liver cancer cell line HepG-2. Kind of assay: Cell inhibitory activity (CCK-8 anti-proliferative) on HepG-2. The conditions noted are these: HepG2, HepG-2 cells, 72 hours with drug, CCK-8, 450 nm. As to the method:
(§1) Cell lines: human promyelocytic leukemia cell line HL-60, human acute leukemia mononuclear macrophage cell line THP-1, human liver cancer cell line HepG-2
(§2) Test Method for Cell Inhibitory Activity
(§3) Cells are routinely cultured in an incubator at 37° C. and 5% CO2 saturated humidity. The culture medium is RPMI1640 cell culture medium containing 10% of heat-inactivated fetal bovine serum, 100 U/mL of penicillin and 100 U/mL of streptomycin. The culture medium is replaced after 48 hours. After the cells adhere to the wall, they are digested with 0.25% trypsin and passage.
(§4) A vial of cells in the logarithmic growth phase and in good condition is digested with a digestion solution (0.125% trypsin+0.01% EDTA); cell count is 2 to 4×10^4 cell/mL; a cell suspension is made and inoculated on a 96-well plate, 100 μL/well, and cultured in a constant temperature CO2 incubator for 24 hours. The medium is replaced; the test drug is added, 100 μL/well, and cultured for 72 hours. CCK-8 is added to a 96-well plate, 50 μL/well, and incubated in an incubator for 4 hours. The supernatant is aspirated; DMSO is added, 200 μL/well, and shaken on a plate shaker for 10 minutes.

In assay [2] the test system is human acute leukemia mononuclear macrophage cell line THP-1. The assay is described as follows: Cell inhibitory activity (CCK-8 anti-proliferative) on THP-1. Conditions: THP-1 cells, 72 hours with drug, CCK-8, 450 nm. As to the method:
as §1, §2, §3, §4

Assay [3] deals with human promyelocytic leukemia cell line HL-60. Kind of assay: Cell inhibitory activity (CCK-8 anti-proliferative) on HL-60. The conditions noted are these: HL-60 cells, 72 hours with drug, CCK-8, 450 nm. As to the method: as §1, §2, §3, §4

Turning to `CCCCCCNC(=O)C1OC(Oc2cc3oc(-c4ccc(OC)cc4)cc(=O)c3c(O)c2OC)C(O)C(O)C1O` (stereo not drawn) [Example 33], the concentration for half-maximal inhibition (IC50) worked out at 3.69 ± 0.63 µM in assay [1], 5.76 ± 0.33 µM in assay [2] and 4.21 ± 0.15 µM in assay [3].
With `CCCCCCNC(=O)C1OC(Oc2cc3oc(-c4ccc(OCc5ccccc5)cc4)cc(=O)c3c(O)c2OCc2ccccc2)C(O)C(O)C1O` (stereo not drawn) [Example 18], the IC50 in assay [1] is 46.2 ± 2.03 µM; in assay [2], 35.8 ± 1.24 µM; in assay [3] it was 59.1 ± 0.91 µM.
The corresponding values for `COc1ccc(-c2cc(=O)c3c(O)c(OC)c(OC4OC(C(=O)Nc5cccc(C)c5)C(O)C(O)C4O)cc3o2)cc1` (stereo not drawn) [Example 23] are 3.15 ± 0.46 µM, 4.62 ± 0.2 µM and 5.49 ± 0.16 µM.
As to `COc1ccc(-c2cc(=O)c3c(O)c(OC)c(OC4OC(C(=O)Nc5ccccc5C)C(O)C(O)C4O)cc3o2)cc1` (stereo not drawn) [Example 24], the IC50 in assay [1] is 24.3 ± 0.92 µM; in assay [2], 27.8 ± 1.12 µM; in assay [3] it was 64.2 ± 3.41 µM.
For `COc1ccc(-c2cc(=O)c3c(O)c(OC)c(OC4OC(C(=O)Nc5ccccc5OC)C(O)C(O)C4O)cc3o2)cc1` (stereo not drawn) [Example 29], the IC50 in assay [1] turned out to be 29 ± 2.26 µM; in assay [2], 19.7 ± 0.89 µM; in assay [3], 53.2 ± 3.47 µM.
With `COc1ccc(-c2cc(=O)c3c(O)c(OC)c(OC4OC(C(=O)Nc5ccccc5O)C(O)C(O)C4O)cc3o2)cc1` (stereo not drawn) [Example 26], the results for the IC50 in assay [1], in assay [2] and in assay [3] were 32.1 ± 2.03 µM, 40.1 ± 1.57 µM and 15.4 ± 0.88 µM, respectively.
`COc1ccc(NC(=O)C2OC(Oc3cc4oc(-c5ccc(OCc6ccccc6)cc5)cc(=O)c4c(O)c3OCc3ccccc3)C(O)C(O)C2O)cc1` (stereo not drawn) [Example 13]: the IC50 in assay [1] stood at 23.9 ± 0.88 µM; in assay [2], 26.3 ± 0.94 µM; in assay [3], 20.9 ± 0.46 µM.
The corresponding values for `COc1ccc(-c2cc(=O)c3c(O)c(OC)c(OC4OC(C(=O)NC(C)C)C(O)C(O)C4O)cc3o2)cc1` (stereo not drawn) [Example 32] are 26.6 ± 2.19 µM, 19 ± 0.36 µM and 28.2 ± 1.19 µM.
On to `COc1ccc(-c2cc(=O)c3c(O)c(OC)c(OC4OC(C(=O)Nc5ccc(Cl)cc5)C(O)C(O)C4O)cc3o2)cc1` (stereo not drawn) [Example 21], for which the IC50 was 3.21 ± 0.75 µM in assay [1], 4.47 ± 0.35 µM in assay [2] and 4.86 ± 0.21 µM in assay [3].
In the case of `COc1ccc(NC(=O)C2OC(Oc3cc4oc(-c5ccc(OC)cc5)cc(=O)c4c(O)c3OC)C(O)C(O)C2O)cc1` (stereo not drawn) [Example 28], the values for the IC50 in assay [1], in assay [2] and in assay [3] were 39.5 ± 1.03 µM, 53.8 ± 3.58 µM and 47.2 ± 2.71 µM, respectively.
With `COc1cccc(NC(=O)C2OC(Oc3cc4oc(-c5ccc(OCc6ccccc6)cc5)cc(=O)c4c(O)c3OCc3ccccc3)C(O)C(O)C2O)c1` (stereo not drawn) [Example 15], the IC50 amounted to 29.2 ± 0.77 µM in assay [1], 31.62 ± 0.25 µM in assay [2] and 4.28 ± 0.31 µM in assay [3].
Consider `O=C(Nc1cccc(Cl)c1)C1OC(Oc2cc3oc(-c4ccc(OCc5ccccc5)cc4)cc(=O)c3c(O)c2OCc2ccccc2)C(O)C(O)C1O` (stereo not drawn) [Example 7], for which the IC50 amounted to 11.2 ± 1.07 µM in assay [1], 13.67 ± 0.13 µM in assay [2] and 15.43 ± 0.11 µM in assay [3].
Regarding `O=C(O)[C@H]1O[C@@H](Oc2cc3oc(-c4ccc(O)cc4)cc(=O)c3c(O)c2O)[C@H](O)[C@@H](O)[C@@H]1O` [Scutellarin], the IC50 came to 56.1 ± 1.23 µM in assay [1], 48.5 ± 2.21 µM in assay [2] and 22.7 ± 1.97 µM in assay [3].
As for `O=C(Nc1ccccc1)C1OC(Oc2cc3oc(-c4ccc(OCc5ccccc5)cc4)cc(=O)c3c(O)c2OCc2ccccc2)C(O)C(O)C1O` (stereo not drawn) [Example 5], the figures for the IC50 in assay [1], in assay [2] and in assay [3] were 45.7 ± 2.15 µM, 35.37 ± 0.23 µM and 20 ± 0.19 µM, respectively.
On to `COc1ccc(-c2cc(=O)c3c(O)c(OC)c(OC4OC(C(=O)Nc5ccc(C)cc5)C(O)C(O)C4O)cc3o2)cc1` (stereo not drawn) [Example 25], for which the IC50 was 39.7 ± 2.31 µM in assay [1], 34.4 ± 1.89 µM in assay [2] and 61.7 ± 2.97 µM in assay [3].
Consider `COc1ccc(-c2cc(=O)c3c(O)c(OC)c(OC4OC(C(=O)NC5CCCCC5)C(O)C(O)C4O)cc3o2)cc1` (stereo not drawn) [Example 34], for which the IC50 in assay [1] is 11.2 ± 0.72 µM; in assay [2], 19.1 ± 0.78 µM; in assay [3], 28.7 ± 0.54 µM.
For the molecule `Cc1ccc(NC(=O)C2OC(Oc3cc4oc(-c5ccc(OCc6ccccc6)cc5)cc(=O)c4c(O)c3OCc3ccccc3)C(O)C(O)C2O)cc1` (stereo not drawn) [Example 10], the IC50 worked out at 7.23 ± 0.31 µM in assay [1], 5.75 ± 0.36 µM in assay [2] and 13 ± 0.28 µM in assay [3].
For the molecule `O=C(Nc1ccc(O)cc1)C1OC(Oc2cc3oc(-c4ccc(OCc5ccccc5)cc4)cc(=O)c3c(O)c2OCc2ccccc2)C(O)C(O)C1O` (stereo not drawn) [Example 12], the results for the IC50 in assay [1], in assay [2] and in assay [3] were 36.1 ± 0.67 µM, 33.9 ± 0.78 µM and 58.9 ± 0.97 µM, respectively.
The corresponding values for `COc1ccc(-c2cc(=O)c3c(O)c(OC)c(OC4OC(C(=O)Nc5cccc(Cl)c5)C(O)C(O)C4O)cc3o2)cc1` (stereo not drawn) [Example 22] are 5.42 ± 0.53 µM, 7.02 ± 0.27 µM and 3.37 ± 0.22 µM.
As for `COc1ccccc1NC(=O)C1OC(Oc2cc3oc(-c4ccc(OCc5ccccc5)cc4)cc(=O)c3c(O)c2OCc2ccccc2)C(O)C(O)C1O` (stereo not drawn) [Example 14], the IC50 in assay [1] was found to be 6.23 ± 2.03 µM; in assay [2], 12.5 ± 0.35 µM; in assay [3], 1.7 ± 0.11 µM.
The corresponding values for `Cc1cccc(NC(=O)C2OC(Oc3cc4oc(-c5ccc(OCc6ccccc6)cc5)cc(=O)c4c(O)c3OCc3ccccc3)C(O)C(O)C2O)c1` (stereo not drawn) [Example 8] are 12 ± 3.52 µM, 16.1 ± 0.57 µM and 11.8 ± 0.34 µM.
For `CC(C)NC(=O)C1OC(Oc2cc3oc(-c4ccc(OCc5ccccc5)cc4)cc(=O)c3c(O)c2OCc2ccccc2)C(O)C(O)C1O` (stereo not drawn) [Example 17], in that order: 39.5 ± 1.03 µM, 37.3 ± 0.93 µM and 54.1 ± 1.21 µM.
For `COc1ccc(-c2cc(=O)c3c(O)c(OC)c(OC4OC(C(=O)Nc5ccccc5)C(O)C(O)C4O)cc3o2)cc1` (stereo not drawn) [Example 20], the IC50 in assay [1] was determined as 16.8 ± 0.19 µM; in assay [2], 63.12 ± 0.46 µM; in assay [3], 85.23 ± 0.75 µM.
As for `CCCNC(=O)C1OC(Oc2cc3oc(-c4ccc(OC)cc4)cc(=O)c3c(O)c2OC)C(O)C(O)C1O` (stereo not drawn) [Example 31], the IC50 was found to be 33 ± 1.13 µM in assay [1], 41.6 ± 1.37 µM in assay [2] and 21.8 ± 0.99 µM in assay [3].
In the case of `O=C(Nc1ccc(Cl)cc1)C1OC(Oc2cc3oc(-c4ccc(OCc5ccccc5)cc4)cc(=O)c3c(O)c2OCc2ccccc2)C(O)C(O)C1O` (stereo not drawn) [Example 6], the IC50 stood at 51.6 ± 0.97 µM in assay [1], 81.36 ± 0.35 µM in assay [2] and 75.88 ± 0.31 µM in assay [3].
Turning to `Cc1ccccc1NC(=O)C1OC(Oc2cc3oc(-c4ccc(OCc5ccccc5)cc4)cc(=O)c3c(O)c2OCc2ccccc2)C(O)C(O)C1O` (stereo not drawn) [Example 9], the IC50 in assay [1] was 19.4 ± 1.11 µM; in assay [2] it was 26.8 ± 0.32 µM; in assay [3] it was 27.53 ± 0.15 µM.
For `COc1ccc(-c2cc(=O)c3c(O)c(OC)c(OC4OC(C(=O)Nc5ccc(O)cc5)C(O)C(O)C4O)cc3o2)cc1` (stereo not drawn) [Example 27], the IC50 is 51.2 ± 0.87 µM in assay [1], 89.03 ± 0.59 µM in assay [2] and 59.3 ± 2.18 µM in assay [3].
Regarding `COc1ccc(-c2cc(=O)c3c(O)c(OC)c(OC4OC(C(=O)Nc5cccc(OC)c5)C(O)C(O)C4O)cc3o2)cc1` (stereo not drawn) [Example 30], the IC50 was 15 ± 0.85 µM in assay [1], 21 ± 0.49 µM in assay [2] and 2.95 ± 0.31 µM in assay [3].
As for `O=C(NC1CCCCC1)C1OC(Oc2cc3oc(-c4ccc(OCc5ccccc5)cc4)cc(=O)c3c(O)c2OCc2ccccc2)C(O)C(O)C1O` (stereo not drawn) [Example 19], the figures for the IC50 in assay [1], in assay [2] and in assay [3] were 17.6 ± 1.66 µM, 16.8 ± 0.19 µM and 58.8 ± 2.31 µM, respectively.
Regarding `O=C(Nc1ccccc1O)C1OC(Oc2cc3oc(-c4ccc(OCc5ccccc5)cc4)cc(=O)c3c(O)c2OCc2ccccc2)C(O)C(O)C1O` (stereo not drawn) [Example 11], the IC50 in assay [1] is 5.11 ± 0.43 µM; in assay [2], 6.11 ± 0.97 µM; in assay [3] it was 2.91 ± 0.69 µM.
Turning to `CCCNC(=O)C1OC(Oc2cc3oc(-c4ccc(OCc5ccccc5)cc4)cc(=O)c3c(O)c2OCc2ccccc2)C(O)C(O)C1O` (stereo not drawn) [Example 16], the results for the IC50 in assay [1], in assay [2] and in assay [3] were 21 ± 0.81 µM, 22.4 ± 0.38 µM and 30.6 ± 0.57 µM, respectively.
